# Measured values: publication PMC4836696 (PLoS ONE, 2016)
# Entries after “also recorded” stand apart in the source; their conditions may differ.
# Experiments:
# [1] = test system: subjects with T2D taking liraglutide; experiment: Clinical study Part B: pharmacodynamics (weight, glucose, HbA1c); format: in vivo, human; conditions: Part B: liraglutide alone titrated to 1.8 mg/day, mean ± SD
# From the text: In all three Parts, to reduce the risk of gastrointestinal adverse events subjects started by taking 15 g of GSK457 daily, in 2 divided doses, and were up−titrated to 30g daily (Day 4) and then to a maximum dose of 40 g daily at Day 7. Subjects unable to tolerate doses of 30 g or 40 g were permitted to reduce their dose to tolerated levels, with a minimum tolerated dose of 15 g required to remain in the study. A unit dose of 5 g of GSK457 consisted of three capsules of oleic acid and a separate sachet of powder for each of the three powder compounds. […]
# In Parts B and C, there were additional clinic visits on Days 7, 14, and 28 for safety evaluations, potential modification of dose (Days 7 and 14), and dispensing of study medications. Subjects monitored their capillary blood glucose levels twice a day using a wireless-enabled glucometer and daily weights were monitored using a wireless enabled weighing instrument (see S3 Materials and Methods for more information). […]
# Venous blood samples were collected for PD and PK analysis in K^+ EDTA tubes and rapidly placed on ice until centrifuged at 4°C for 10 minutes. Plasma was stored at -70°C until analyzed. Samples for clinical chemistry and hematology were measured by the local certified laboratory. Plasma samples were analyzed for glucose, insulin and leptin by BioAgilytix Labs (Durham, NC, USA). […]
# [2] = test system: subjects with T2D taking liraglutide; experiment: Clinical study Part B: safety and tolerability; format: in vivo, human
# From the text: A unit dose of 5 g of GSK457 consisted of three capsules of oleic acid and a separate sachet of powder for each of the three powder compounds. The powders were mixed by the subject into 12 oz of flavored (Mio™ pomegranate/berry flavoring) water in a shaker bottle and consumed just prior to breakfast and dinner. The capsules could be taken with this drink or separately with water. The matching placebo consisted of starch and microcrystalline cellulose in identical sachets and capsules.
# [3] = Clinical study Part B: plasma liraglutide pharmacokinetics
# [4] = Clinical study Part A: plasma metformin pharmacokinetics; conditions: for metformin Cmax / metformin AUC(0−10): geometric mean (CV%); for metformin Tmax: median (range)
# [5] = protocol risk table; cited from earlier work
# [6] = test system: subjects with T2D taking metformin; experiment: Clinical study Part C: pharmacodynamics (weight, glucose, HbA1c); format: in vivo, human; conditions: Part C: usual metformin alone, mean ± SE
# From the text: In all three Parts, to reduce the risk of gastrointestinal adverse events subjects started by taking 15 g of GSK457 daily, in 2 divided doses, and were up-titrated to 30g daily (Day 4) and then to a maximum dose of 40 g daily at Day 7. Subjects unable to tolerate doses of 30 g or 40 g were permitted to reduce their dose to tolerated levels, with a minimum tolerated dose of 15 g required to remain in the study. A unit dose of 5 g of GSK457 consisted of three capsules of oleic acid and a separate sachet of powder for each of the three powder compounds. […] Subjects monitored their capillary blood glucose levels twice a day using a wireless-enabled glucometer and daily weights were monitored using a wireless enabled weighing instrument (see S3 Materials and Methods for more information). […] Plasma was stored at -70°C until analyzed. Samples for clinical chemistry and hematology were measured by the local certified laboratory. Plasma samples were analyzed for glucose, insulin and leptin by BioAgilytix Labs (Durham, NC, USA). Glucose was measured using a Glucose 2300 STAT Plus Glucose Analyzer with the glucose/lactate standard, catalog number 2747 (Yellow Springs Instrument Co, OH, USA). […] An estimation approach was used where point estimates for treatment differences and corresponding confidence intervals were determined. […]
# patients = conditions: cited from earlier work
# [7] = Clinical study Part C: plasma metformin pharmacokinetics; format: in vivo, human; conditions: Part C: metformin taken 1 hour before GSK457; comparative plot, no statistics
# Experimental: All samples were shipped frozen on dry ice and stored at approximately -20 °C until analysed. […] The eluate was then further diluted with 1.00 mL of 2:98 formic acid / acetonitrile vol/vol, prior to being analyzed by HPLC with MS/MS detection.
# DIO C57BL/6NTac mice = experiment: Chronic 28-day weight loss study in DIO mice; format: in vivo, mouse
# [8] = subjects later randomized to GSK457
# [9] = subjects later randomized to placebo
# [10] = Part B, GSK457 group, Day 42, median (range), n=11
# [11] = Part B, with GSK457, data from 1 outlier excluded
# [12] = Part A healthy subjects, co-administration with GSK457
# [13] = Part A, single 500 mg IR metformin, GSK457 group, Day 1 (metformin alone), n=11
# [14] = Part A, single 500 mg IR metformin, GSK457 group, Day 42 (with GSK457), n=10
# [15] = Part A, single 500 mg IR metformin, Placebo group, Day 1, n=4
# [16] = Part A, single 500 mg IR metformin, Placebo group, Day 42, n=4
# [17] = overdose, ref GLUCOPHAGE (Metformin) Package Insert
structure (smiles),measurement,setting,value
CCCCCCCCCCCCCCCC(=O)N[C@@H](CCC(=O)NCCCC[C@H](NC(=O)[C@H](C)NC(=O)[C@H](C)NC(=O)[C@H](CCC(N)=O)NC(=O)CNC(=O)[C@H](CCC(=O)O)NC(=O)[C@H](CC(C)C)NC(=O)[C@H](Cc1ccc(O)cc1)NC(=O)[C@H](CO)NC(=O)[C@H](CO)NC(=O)[C@@H](NC(=O)[C@H](CC(=O)O)NC(=O)[C@H](CO)NC(=O)[C@@H](NC(=O)[C@H](Cc1ccccc1)NC(=O)[C@@H](NC(=O)CNC(=O)[C@H](CCC(=O)O)NC(=O)[C@H](C)NC(=O)[C@@H](N)Cc1cnc[nH]1)[C@@H](C)O)[C@@H](C)O)C(C)C)C(=O)N[C@@H](CCC(=O)O)C(=O)N[C@@H](Cc1ccccc1)C(=O)N[C@H](C(=O)N[C@@H](C)C(=O)N[C@@H](Cc1c[nH]c2ccccc12)C(=O)N[C@@H](CC(C)C)C(=O)N[C@H](C(=O)N[C@@H](CCCNC(=N)N)C(=O)NCC(=O)N[C@@H](CCCNC(=N)N)C(=O)NCC(=O)O)C(C)C)[C@@H](C)CC)C(=O)O [liraglutide],change in mean body weight during the 12-week liraglutide Stabilization phase,[1]; [8],-1.29 kg
same,change in mean body weight during the 12-week liraglutide Stabilization phase,[1]; [9],-2.55 kg
same,most common drug-related adverse events during the Stabilization period,"[2]; Part B: liraglutide alone, 12 weeks, titrated to 1.8 mg/day","nausea, diarrhea, decreased appetite, and headache"
same,circulating lipase/amylase concentrations,"[2]; Part B: while subjects were on liraglutide, no symptoms or signs of pancreatitis, no clear differentiation GSK457 vs placebo",Asymptomatic elevations
same,effect of co-administration with GSK457 on liraglutide plasma exposures,"[3]; Part B T2D patients, all data",did not affect liraglutide plasma exposures; also recorded: no effect
same,liraglutide AUC(0−t),"[3]; Part B, GSK457 group, Day 42 (with GSK457), geometric mean (CV%), n=11",1266 (79.4) ng.h/mL
same,liraglutide Tlast,[3]; [10],24.02 (23.8−24.3) h
same,liraglutide Tmax,[3]; [10],9.98 (0.8−23.8) h
same,liraglutide Tlast,"[3]; Part B, GSK457 group, Day -1, median (range), n=12",23.88 (23.0−25.9) h
same,liraglutide Tlast,"[3]; Part B, Placebo group, Day 42, median (range), n=5",23.80 (23.8−24.1) h
same,increase of liraglutide AUC(0−t),[3]; [11],28%
same,increase of liraglutide Cmax,[3]; [11],22%
CN(C)C(=N)N=C(N)N [metformin],reduction of metformin systemic exposure,"[4]; Part A healthy subjects, by GSK457",~ 30%
same,decrease of metformin AUC(0−10 h),[4]; [12],32%
same,decrease of metformin Cmax,[4]; [12],34%
same,metformin Cmax,"[4]; Part A healthy subjects, single 500 mg IR metformin before breakfast, Placebo group, Day 1, plasma, HPLC-MS/MS, n=4",682 (19.0) ng/mL
same,metformin AUC(0−10),[4]; [13],3403 (26.4) ng.h/mL
same,metformin Tmax,[4]; [13],2.00 (1.00−4.00) h
same,metformin Cmax,"[4]; Part A, single 500 mg IR metformin, GSK457 group, Day 1 (metformin alone, GSK457 started at dinner), n=11",576 (24.4) ng/mL
same,metformin Cmax,"[4]; Part A, single 500 mg IR metformin, GSK457 group, Day 42 (taken together with GSK457 after 6 weeks), n=10",374 (31.2) ng/mL
same,metformin AUC(0−10),[4]; [14],2232 (38.6) ng.h/mL
same,metformin Tmax,[4]; [14],2.00 (2.00−5.50) h
same,metformin AUC(0−10),[4]; [15],4347 (19.1) ng.h/mL
same,metformin Tmax,[4]; [15],3.01 (2.00−4.03) h
same,metformin AUC(0−10),[4]; [16],5082 (21.1) ng.h/mL
same,metformin Cmax,[4]; [16],860 (18.8) ng/mL
same,metformin Tmax,[4]; [16],4.00 (2.00−4.03) h
same,fraction of a dose that appears in the feces,[5],20-30%
same,change in mean body weight during the 4-week metformin Stabilization phase,[6]; [8],-1.62 kg
same,change in mean body weight during the 4-week metformin Stabilization phase,[6]; [9],-1.17 kg
same,patients with decrease to subnormal serum vitamin B12 levels,"patients; human, in vivo",approximately 7%
same,hypoglycemia in metformin overdose cases,patients; [17],approximately 10 % of cases
same,lactic acidosis in metformin overdose cases,patients; [17],approximately 32%
same,effect on metformin AUC(0−10 h),[7],slight decrease
same,effect on metformin Cmax,[7],no apparent effect
CCCCCCCC/C=C\CCCCCCCC(=O)O [oleic acid],effect on endocrine hormones,DIO C57BL/6NTac mice; agents dosed individually,little effect
same,"serum chemistry, effect of single agents",DIO C57BL/6NTac mice; single GRAS agent in chow,only a small beneficial effect
same,serum glucose vs. DIO vehicle,"DIO C57BL/6NTac mice; single agent in chow, p < 0.05",lowered glucose
